# According to PMC10039899, “Integrative proteogenomic characterization of early esophageal cancer” (Nature Communications, 2023):
# pIC50: −log10 of the molar value.
# Target: T1, phosphoglycerate kinase 1 (PGK1) (Homo sapiens, UniProt P00558)
# T1 construct: Flag-tagged PGK1, whole-length cDNA, purified from HEK293T cells
# T1 sequence (P00558 2-417): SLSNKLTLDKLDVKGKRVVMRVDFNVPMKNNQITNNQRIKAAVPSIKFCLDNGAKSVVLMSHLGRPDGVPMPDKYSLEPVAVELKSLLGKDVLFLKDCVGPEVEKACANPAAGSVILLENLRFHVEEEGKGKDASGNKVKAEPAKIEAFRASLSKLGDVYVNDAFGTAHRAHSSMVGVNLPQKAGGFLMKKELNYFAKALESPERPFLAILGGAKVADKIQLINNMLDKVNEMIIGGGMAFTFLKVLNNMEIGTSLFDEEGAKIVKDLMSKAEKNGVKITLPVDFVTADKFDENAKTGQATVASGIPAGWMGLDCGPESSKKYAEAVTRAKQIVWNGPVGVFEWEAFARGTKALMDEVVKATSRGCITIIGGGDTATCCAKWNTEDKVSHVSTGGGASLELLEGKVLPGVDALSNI
# Assay: in vitro enzymatic assay of purified Flag-PGK1, GAPDH-coupled, NADH decrease at […] nm
# Assay type: biochemical
compound,measurement,value
Nc1ccn([C@@H]2O[C@H](CO)[C@@H](O)C2(F)F)c(=O)n1 [gemcitabine],pIC50,7.79
